From EP3501511A1, “MEANS FOR PREVENTING AND TREATING BRAIN METASTASIS” (Fundación Centro Nacional De Investigaciones Oncológicas …, priority 2017, dated 2019)

Legend:
B16/F10-BrM [1] = experiment: Tamoxifen-induced Stat3 depletion in reactive astrocytes of cKO-Stat3 mice inoculated with B16/F10-BrM; format: in vivo
Text: (§1) To test the functional contribution of pStat3+ RA in brain metastasis we generated GFAP-Cre/ERT2;Stat3loxP/loxP (cKO-Stat3) mice in which syngeneic brain metastatic (BrM) cells, labeled with Luciferase and Gfp (Green fluorescent protein), were intracardiacally inoculated. We used two BrM models including lung adenocarcinoma model (482N1) and melanoma model (B16/F10-BrM). […] In order to analyze the effect of Stat3 deletion in RA once brain metastases have developed, and given the limited time available in vivo before mice reach the humane endpoint, we cultured ex vivo cKO-Stat3 brain slices containing 2 weeks old lesions grown in mice (Fig. 4A).
All animal experiments were performed in accordance with a protocol approved by the CNIO, Instituto de Salud Carlos III and Comunidad de Madrid Institutional Animal Care and Use Committee. Athymic nu/nu (Harlan), and C57BL/6 mice 4-6 weeks of age were used. cKO-Stat3 was generated by breeding GFAP-CRE/ERT2 (B6.Cg- Tg(GFAP-cre/ERT2)505Fmv/J, Jackson Labs, ref. 012849) with Stat3loxP/loxP16.
Brain metastatic derivative of a syngeneic B16/F10 model (B16/F10-BrM) was established according to a previous protocol (Bos, P. D. et al. Nature 459, 1005-1009 (2009); Nguyen, D. X. et al. Cell 138, 51-62 (2009)). Brain colonization assays were performed injecting 100 µl of PBS into the left ventricle containing 100,000 cancer cells. Brain colonization was analyzed in vivo and ex vivo by bioluminescence imaging. Anesthetized mice (Isofluorane) were injected retro-orbitally with D-Luciferin (150 mg/kg) and imaged with an IVIS Spectrum Xenogen machine (Caliper Life Sciences). Bioluminescence analysis was performed using Living Image software, version 3. […] Silibinin in the formula of Legasil® was administered by oral gavage daily the same day cancer cells were inoculated (200mg/kg) and until mice reached the endpoint of the experiment.

Mouse astrocytes = experiment: Astrosphere assay; format: cell-based
Procedure: Mouse astrocytes were treated with conditioned media from BrM cell lines or with recombinant mouse protein including Egf (0.01 µg/ml, R&D Systems, ref. 2028-EG- 200), Mif (0.1 µg/ml, R&D Systems, ref. 1978-MF-0257CF) and Tgfα (0.1 µg/ml, R&D Systems, ref. 239-A-100) during 96 hours. After this treatment 10^4 astrocytes were seeded in low attachment plates and incubated for seven days in the presence of the same media to evaluate the ability to form astrospheres. Conditioned media from BrM cell lines were obtained after 3 days incubation of cancer cells in DMEM supplemented with 0.25 % FBS, 2 mM L-Glutamine, 100 IU/ml penicillin/streptomycin and […] amphotericin B. After being collected, the media was filtered and added to astrocytes. Conditioned media from astrospheres was collected, filtered and added to activated CD8 cells (Fig. 7P) or wild type brain slices (Fig. 7T).

482N1 = experiment: cKO-Stat3 brain slice cultures with established metastases treated with 4OH-Tamoxifen (BLI); format: cell-based, mouse; settings: 4OH-Tamoxifen 1 µM; n≥ 4 brain slices per condition, P=0.013
Text: as §1, with “(B16/F10-BrM). These syngeneic models have gained brain tropism while retaining an aggressive extracranial metastatic potential (Valiente, M. et al. Cell 156, 1002-1016 (2014) and also as disclosed herein). […] We confirmed Stat3 depletion from RA under these experimental conditions (Fig.2).” for “(B16/F10-BrM).”, “4A). […]” for “4A).”
(§2) Treatments to brain slices were given once during the experiment (4OH-Tmx, 1 µM, Sigma-Aldrich, ref. H7904; WP1066, 10 µM, Merck, ref. 573097; Doxycycline, 1 µg/ml, Sigma-Aldrich, ref. D9891; silibinin, 100 µM, Sigma-Aldrich, ref. S0417) by adding them to the media. […] Analysis of the knockdown level in H2030-BrM (Fig. 4F) was analyzed in a homogenate containing the mouse brain tissue and human cancer cells. […]

B16/F10-BrM [2] = experiment: as above; format: cell-based, mouse; settings: 4OH-Tamoxifen 1 µM; n≥ 8 brain slices per condition, P=0.012
Text: as §1, with “(B16/F10-BrM). These syngeneic models have gained brain tropism while retaining an aggressive extracranial metastatic potential (Valiente, M. et al. Cell 156, 1002-1016 (2014) and also as disclosed herein). […] We confirmed Stat3 depletion from RA under these experimental conditions (Fig.2).” for “(B16/F10-BrM).”, “4A). […]” for “4A).”
as §2

[3] = Tamoxifen treated cKO-Stat3 mice, n=7 metastases

## CC/C(=C(\c1ccccc1)c1ccc(OCCN(C)C)cc1)c1ccccc1 [Tamoxifen]
B16/F10-BrM [1]; Tamoxifen treated cKO-Stat3 mice
  metastases of Score 0 (no pStat3 signal) in the surrounding microenvironment: 66.7%
B16/F10-BrM [1]; [3]
  metastases of Score 1 (low pStat3 signal) in the surrounding microenvironment: 22.2%
  metastases of Score 2 (high pStat3 signal) in the surrounding microenvironment: 11.1%
B16/F10-BrM [1]; cKO-Stat3 brains treated with tamoxifen
  CD74+/Iba1+ cells infiltrating metastasis: less CD74+/lba1+ cells infiltrating metastasis

## C[C@H](NC(=O)/C(C#N)=C/c1cccc(Br)n1)c1ccccc1 [WP1066]
Mouse astrocytes; primary astrocytes in the presence of the cytokine cocktail (Egf, Tgfα, Mif)
  formation of astrospheres: impairs the formation of astrospheres

## CC/C(=C(\c1ccc(O)cc1)c1ccc(OCCN(C)C)cc1)c1ccccc1 [4OH-Tamoxifen]
482N1
  growth of established metastases scored with BLI: impaired the growth of established metastases
B16/F10-BrM [2]
  growth of established metastases scored with BLI: impaired the growth of established metastases
Mouse astrocytes; cKO-Stat3 derived astrocytes induced by the cytokine cocktail, 4OH-Tamoxifen 1µM
  formation of astrospheres: unable to generate astrospheres
